Holding throughout (experiment): relative viability (nuclei count vs DMSO), 5 days (fraction); higher = more cells survive
Compound in assay [1]: C1CC(C2=C(C1)C3=C(N2)C=CC(=C3)Cl)C(=O)N [Selisistat] + CC(C)C[C@H](NC(=O)[C@H](Cc1ccccc1)NC(=O)c1cnccn1)B(O)O [Bortezomib] (partner 0.002 µM)
An outline of the steps: (§1)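 Relative viability equals treated-well nuclei counts divided by vehicle-well nuclei counts. Counts came from 4× images of lung cancer cell lines grown in 1536-well plates for 5 days after pin-tool dosing on the day after seeding. Dosing used one drug alone or a fixed anchor-drug dose plus five library-drug doses (not always all listed) in √10 steps, and values are medians of duplicate plates.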

Compound in assay [2]: C1CC(C2=C(C1)C3=C(N2)C=CC(=C3)Cl)C(=O)N [Selisistat] + CS(=O)(=O)N1CCN(Cc2cc3nc(-c4cccc5[nH]ncc45)nc(N4CCOCC4)c3s2)CC1 [Pictilisib] (partner 1 µM)
In outline: as §1

Compound in assay [3]: C1CC(C2=C(C1)C3=C(N2)C=CC(=C3)Cl)C(=O)N [Selisistat] + O=C(c1cc(Cc2n[nH]c(=O)c3ccccc23)ccc1F)N1CCN(C(=O)C2CC2)CC1 [Olaparib] (partner 8 µM)
An outline of the steps:
as §1

Compound in assay [4]: c1ccc2c(CCNc3ccc(Nc4ccncc4)cc3)c[nH]c2c1 [Serdemetan] + Cc1nc(Nc2ncc(C(=O)Nc3c(C)cccc3Cl)s2)cc(N2CCN(CCO)CC2)n1 [Dasatinib] (partner 0.075 µM)
In outline: as §1

Consider PC-3 [JPC-3], for which the relative viability in assay [1] (first compound 0.4 µM) was found to be 0.796; in assay [1] (first compound 1.265 µM), 0.788; in assay [1] (first compound 4 µM) it was 0.828; in assay [1] (first compound 12.65 µM), 0.81; in assay [1] (first compound 40 µM), 0.885; in assay [2] (first compound 0.4 µM), 0.753. In addition, the relative viability was 0.749 in assay [2] (first compound 1.265 µM); 0.449 in assay [2] (first compound 4 µM); 0.631 in assay [2] (first compound 12.65 µM); 0.696 in assay [2] (first compound 40 µM); 1.13 in assay [3] (first compound 0.4 µM); 1.1 in assay [3] (first compound 1.265 µM). In addition, the relative viability is 1.02 in assay [3] (first compound 12.65 µM); 1.07 in assay [3] (first compound 40 µM); 0.973 in assay [4] (first compound 0.04 µM); 0.95 in assay [4] (first compound 0.1265 µM); 1.01 in assay [4] (first compound 0.4 µM); 0.924 in assay [4] (first compound 1.265 µM). Further, the relative viability in assay [4] (first compound 4 µM) was 0.941.
As for PC-14, the relative viability in assay [1] (first compound 0.4 µM) is 0.848; in assay [1] (first compound 1.265 µM), 0.713; in assay [1] (first compound 4 µM) it was 0.861; in assay [1] (first compound 12.65 µM) it was 0.886; in assay [1] (first compound 40 µM) it was 0.888; in assay [2] (first compound 0.4 µM), 0.699. Further, the relative viability in assay [2] (first compound 1.265 µM) stood at 0.66; in assay [2] (first compound 4 µM), 0.729; in assay [2] (first compound 12.65 µM), 0.664; in assay [2] (first compound 40 µM), 0.824; in assay [3] (first compound 0.4 µM), 0.252; in assay [3] (first compound 1.265 µM), 0.201. The relative viability in assay [3] (first compound 4 µM) turned out to be 0.186; in assay [3] (first compound 12.65 µM), 0.204; in assay [3] (first compound 40 µM), 0.29; in assay [4] (first compound 0.04 µM), 0.262; in assay [4] (first compound 0.1265 µM), 0.247; in assay [4] (first compound 0.4 µM), 0.115. Moreover, the relative viability in assay [4] (first compound 1.265 µM) came to 0.308; in assay [4] (first compound 4 µM), 0.147.
Consider RERF-LC-KJ, for which the relative viability in assay [1] (first compound 0.4 µM) is 1.18; in assay [1] (first compound 1.265 µM) it was 1.02; in assay [1] (first compound 4 µM), 0.974; in assay [1] (first compound 12.65 µM) it was 1; in assay [1] (first compound 40 µM), 1.05; in assay [2] (first compound 0.4 µM), 0.6. For the same cell line, the relative viability in assay [2] (first compound 1.265 µM) turned out to be 0.436; in assay [2] (first compound 4 µM), 0.432; in assay [2] (first compound 12.65 µM), 0.471; in assay [2] (first compound 40 µM), 0.48; in assay [3] (first compound 0.4 µM), 0.962; in assay [3] (first compound 1.265 µM), 0.916. The relative viability in assay [3] (first compound 4 µM) came out at 0.844; in assay [3] (first compound 12.65 µM) it was 0.828; in assay [3] (first compound 40 µM), 0.839; in assay [4] (first compound 0.04 µM), 0.837; in assay [4] (first compound 0.1265 µM), 0.788; in assay [4] (first compound 0.4 µM), 0.667. In addition, the relative viability in assay [4] (first compound 1.265 µM) was determined as 0.657; in assay [4] (first compound 4 µM), 0.69.
For the cell line SK-LU-1, the relative viability in assay [1] (first compound 0.4 µM) worked out at 1.23; in assay [1] (first compound 4 µM) it was 1.27; in assay [1] (first compound 12.65 µM) it was 0.998; in assay [1] (first compound 40 µM), 1.75; in assay [2] (first compound 0.4 µM), 0.65; in assay [2] (first compound 1.265 µM), 0.637. The relative viability is 0.429 in assay [2] (first compound 4 µM); 0.695 in assay [2] (first compound 12.65 µM); 0.635 in assay [2] (first compound 40 µM); 0.567 in assay [3] (first compound 0.4 µM); 0.408 in assay [3] (first compound 1.265 µM); 0.404 in assay [3] (first compound 4 µM). The relative viability in assay [3] (first compound 12.65 µM) turned out to be 0.495; in assay [3] (first compound 40 µM), 0.529; in assay [4] (first compound 0.04 µM) it was 0.212; in assay [4] (first compound 0.1265 µM) it was 0.183; in assay [4] (first compound 0.4 µM), 0.183; in assay [4] (first compound 4 µM), 0.179.
SW 1573: the relative viability came to 1.19 in assay [1] (first compound 0.4 µM); 1.02 in assay [1] (first compound 1.265 µM); 1.03 in assay [1] (first compound 4 µM); 1.02 in assay [1] (first compound 12.65 µM); 1.03 in assay [1] (first compound 40 µM); 0.557 in assay [2] (first compound 0.4 µM). Also, the relative viability was found to be 0.594 in assay [2] (first compound 1.265 µM); 0.426 in assay [2] (first compound 4 µM); 0.419 in assay [2] (first compound 12.65 µM); 0.513 in assay [2] (first compound 40 µM); 0.4 in assay [3] (first compound 0.4 µM); 0.462 in assay [3] (first compound 1.265 µM). In addition, the relative viability in assay [3] (first compound 4 µM) came to 0.505; in assay [3] (first compound 12.65 µM) it was 0.639; in assay [3] (first compound 40 µM) it was 0.505; in assay [4] (first compound 0.04 µM), 0.452; in assay [4] (first compound 0.1265 µM), 0.488; in assay [4] (first compound 0.4 µM), 0.511. The results for the relative viability in assay [4] (first compound 1.265 µM) and in assay [4] (first compound 4 µM) were 0.396 and 0.217, respectively.
In the case of UMC-11, the relative viability in assay [1] (first compound 0.4 µM) came out at 0.494; in assay [1] (first compound 1.265 µM) it was 0.71; in assay [1] (first compound 4 µM), 0.738; in assay [1] (first compound 12.65 µM), 0.671; in assay [1] (first compound 40 µM), 0.626; in assay [2] (first compound 0.4 µM), 0.793. Moreover, the relative viability in assay [2] (first compound 1.265 µM) stood at 0.784; in assay [2] (first compound 4 µM), 0.618; in assay [2] (first compound 12.65 µM), 0.742; in assay [2] (first compound 40 µM) it was 0.809; in assay [3] (first compound 0.4 µM) it was 0.331; in assay [3] (first compound 1.265 µM), 0.356. For the same cell line, the relative viability in assay [3] (first compound 4 µM) turned out to be 0.271; in assay [3] (first compound 12.65 µM), 0.334; in assay [3] (first compound 40 µM), 0.353; in assay [4] (first compound 0.04 µM), 0.45; in assay [4] (first compound 0.1265 µM), 0.437; in assay [4] (first compound 4 µM), 0.351.

For the origin of these results see the supplement of paper PMC10307832.
